Where two headings read alike, the source gives them in different places.

This is an account of results in patent US8865624B2, “Inhibitor for tobacco axillary bud growth and method for inhibiting tobacco axillary bud growth” (SDS Biotech K.K., priority 2010, dated 2014).

Data set [1] concerns Tobacco Michinoku 1 (burley cultivar) axillary buds. Put plainly: Tobacco axillary bud growth inhibition test, burley cultivar. Conditions: Nicotiana tabacum, 672 h, 28 days after the spraying, read-out: Axillary bud growth inhibition ratio; for pest or weed control at 0.1 %: concentration of active ingredient 0.1%. It counts as in vivo. How it is done:
(§1) Tobacco seedlings of Tsukuba 1 (flue-cured cultivar) and Michinoku 1 (burley cultivar) were transplanted to 1/5000a Wagner pots filled with Kureha garden nursery soil. The plants were grown in a glasshouse, and the floral axis parts were removed at the time of single-flower bloom of tobacco (top pruning).
(§2) The formulations of the inhibitors for tobacco axillary bud growth obtained in Formulation Examples 1 to 10 above were each diluted with water to predetermined concentrations, and 20 ml of the water-diluted solutions of the respective inhibitors were separately sprayed using a contact-type axillary bud inhibitor spraying instrument equipped with a spot exhaust nozzle (Examples 1 to 11 and 12 to 22). In addition, butralin (trade name: Blue Ribbon) (Comparative Examples 1 and 3) and decyl alcohol (trade name: Contact) (Comparative Examples 2 and 4) were used for tests as comparative examples in the same manner as above. In the cases of both the flue-cured cultivar and burley cultivar, one plant was planted per pot, and the tests were carried out in duplicate.
(§3) For the respective cases, states of inhibition of axillary bud growth 28 days after the spraying were investigated together with untreated groups sprayed with no inhibitor, and axillary bud growth inhibition ratios were calculated by the following equation. Axillary bud growth inhibition ratio=(fresh weight of axillary buds per plant of untreated group−fresh weight of axillary buds per plant of treated group)÷(fresh weight of axillary buds per plant of untreated group)×100 [Math. 1]
(§4) The formulation of Formulation Example 1 (cafenstrole), Formulation Example 2 (thenylchlor) or Formulation Example 10 (propisochlor) above was diluted with water to predetermined concentrations and mixed with decyl alcohol (manufactured by Wako Pure Chemical Industries, Ltd.), 2-ethylhexanol (manufactured by Wako Pure Chemical Industries, Ltd.) or geraniol (manufactured by Wako Pure Chemical Industries, Ltd.) at predetermined concentrations, and the resultant was adjusted and used for tests (Examples 23 to 31 and 32 to 40). In addition, as comparative examples, the formulation of Formulation Example 1, […], or Formulation Example 10 diluted with water to predetermined concentrations (Comparative Examples 5 to 7 and 11 to 13) and decyl alcohol, 2-ethylhexanol or geraniol diluted with water to a predetermined concentration were used for tests (Comparative Examples 8 to 10 and 14 to 16).
(§5) The respective inhibitors were sprayed in the same manner as in Test Example 1, and states of inhibition of axillary bud growth 28 days after the spraying were investigated together with untreated groups sprayed with no inhibitor. Then, axillary bud growth inhibition ratios were calculated.
(§6) The formulation of Formulation Example 11 (cafenstrole), Formulation Example 12 (thenylchlor) or Formulation Example 13 (chlorthal-dimethyl) above was diluted with water to predetermined concentrations, and the resultant was mixed, adjusted and used for tests (Examples 41 to 58 and 59 to 76). In addition, as comparative examples, the formulation of Formulation Example 11, Formulation Example 12 or Formulation Example 13 diluted with water to predetermined concentrations (Comparative Examples 21 to 29 and 34 to 42), butralin (trade name: Blue Ribbon) (Comparative Examples 17, 18, 30, and 31) and decyl alcohol (trade name: Contact) (Comparative Examples 19, 20, 32, and 33) were used for tests in the same manner as above.

In data set [2] the test system is Tobacco Tsukuba 1 (flue-cured cultivar) axillary buds. Put plainly: Tobacco axillary bud growth inhibition test, flue-cured cultivar. Conditions: 28 days after the spraying. Format: in vivo, Nicotiana tabacum. How it is done: as §1, §2, §3, §4, §5, §6
Data set [3] deals with Tobacco Tsukuba 1 (flue-cured cultivar) leaves (first to fourth leaves from the top). Put plainly: Harmful effect of inhibitor on tobacco leaves, flue-cured cultivar. Format: in vivo, Nicotiana tabacum. On the procedure:
as §1, §2
(§7) Further, the presence or absence of the harmful effect of each inhibitor was evaluated in one of the following four categories depending on the degrees of growth inhibition, gangrene, change in color, deformation and the like of leaves (first to fourth leaves from the top).
(§8) Large: A severely harmful effect was observed.
(§9) Middle: A clearly harmful effect was observed.
(§10) Small: A slightly harmful effect was observed.
(§11) Absent: No harmful effect was observed.
as §6, §5

Data set [4] concerns Tobacco Michinoku 1 (burley cultivar) leaves (first to fourth leaves from the top). Put plainly: Harmful effect of inhibitor on tobacco leaves, burley cultivar. It counts as in vivo, Nicotiana tabacum. On the procedure: as §1, §2, §7, §8, §9, §10, §11, §6, §5
The mark [5] stands for this setting: Nicotiana tabacum, 672 h, Table 1, flue-cured cultivar, concentration of active ingredient 0.1%, read-out: Axillary bud growth inhibition ratio.

On to `COc1ccsc1CN(C(=O)CCl)c1c(C)cccc1C` [Thenylchlor], for which the pest or weed control at 0.1 % in data set [1] (Table 2, burley cultivar) was 95%; in data set [2] (setting [5]), 96%. Moreover, the pest or weed control at 0.05 % in data set [1] (Table 4, burley cultivar, concentration of active ingredient 0.05%) was 70%; in data set [2] (Nicotiana tabacum, 672 h, Table 3, flue-cured cultivar, concentration of active ingredient 0.05%, read-out: Axillary bud growth inhibition ratio), 74%. The pest or weed control at 0.002 % in data set [1] (Table 6, burley cultivar, concentration of active ingredient 0.002%) is 11%; in data set [2] (Nicotiana tabacum, 672 h, Table 5, flue-cured cultivar, concentration of active ingredient 0.002%, read-out: Axillary bud growth inhibition ratio) it was 12%. Also, the pest or weed control at 0.005 % was determined as 22% in data set [1] (Table 6, burley cultivar, concentration of active ingredient 0.005%) and 14% in data set [2] (Nicotiana tabacum, 672 h, Table 5, flue-cured cultivar, concentration of active ingredient 0.005%, read-out: Axillary bud growth inhibition ratio). Further, the pest or weed control at 0.01 % was determined as 28% in data set [1] (Table 6, burley cultivar, concentration of active ingredient 0.01%) and 22% in data set [2] (Nicotiana tabacum, 672 h, Table 5, flue-cured cultivar, concentration of active ingredient 0.01%, read-out: Axillary bud growth inhibition ratio). The “Harmful effect of inhibitor” value in data set [3] (in vivo) and in data set [4] (in vivo) was “Absent” in each case.

As to `CCc1cccc(CC)c1N(COC)C(=O)CCl` [Alachlor, alachlor], the pest or weed control at 0.1 % in data set [1] (Table 2, burley cultivar) turned out to be 91%; in data set [2] (setting [5]), 97%. Further, the “Harmful effect of inhibitor” value is “Absent” in data set [3] (Table 1, flue-cured cultivar, concentration of active ingredient 0.1%) and “Absent” in data set [4] (Table 2, burley cultivar, concentration of active ingredient 0.1%).

For the compound `COCC(C)N(C(=O)CCl)c1c(C)csc1C` (centres unmarked) [Dimethenamid, dimethenamid], the pest or weed control at 0.1 % in data set [1] (Table 2, burley cultivar) amounted to 94%; in data set [2] (setting [5]) it was 92%. The “Harmful effect of inhibitor” value in data set [3] (in vivo) and in data set [4] (in vivo) was “Absent” each time.

As for `CCCCOCN(C(=O)CCl)c1c(CC)cccc1CC` [Butachlor, butachlor], the pest or weed control at 0.1 % in data set [1] (Table 2, burley cultivar) came to 96%; in data set [2] (setting [5]), 100%. In addition, the “Harmful effect of inhibitor” value in data set [3] (in vivo) and in data set [4] (in vivo) was “Absent” each time.

For the compound `CCc1cccc(C)c1N(COC(C)C)C(=O)CCl` [Propisochlor, propisochlor], the pest or weed control at 0.1 % amounted to 84% in data set [1] (Table 2, burley cultivar); 83% in data set [1] (Table 4, burley cultivar); 86% in data set [2] (setting [5]). Further, the pest or weed control at 0.2 % in data set [1] (Table 2, burley cultivar, concentration of active ingredient 0.2%) is 95%; in data set [2] (Nicotiana tabacum, 672 h, Table 1, flue-cured cultivar, concentration of active ingredient 0.2%, read-out: Axillary bud growth inhibition ratio) it was 98%. The “Axillary bud growth inhibition ratio” value in data set [2] (Table 3, flue-cured cultivar, concentration of active ingredient 0.1%) stood at 86%. The “Harmful effect of inhibitor” value in data set [3] (in vivo) and in data set [4] (in vivo) was “Absent” throughout.
